# Tested on: 616215-338-R-J1-PDC complex spheroids, viability % test/control
# Test: Anticancer human tumor 616215-338-R-J1-PDC patient-derived colon adenocarcinoma cell line growth inhibition [CLK]
# Conditions: for IC50: curve of first compound; for viability, T/C: stronger effect = lower value
# Summary of the method: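 Patient-derived tumor cells grown as complex spheroids with HUVEC endothelial cells and mesenchymal stem cells, treated with drug combinations. Concentrations descend in half-log steps from near clinical Cmax, or from 10 microM if Cmax unknown.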
# [1] = second compound 0.0316 µM, first compound 0.0316 µM
# [2] = second compound 0.0316 µM, first compound 0.1 µM
# [3] = second compound 0.0316 µM, first compound 0.316 µM
# [4] = second compound 0.0316 µM, first compound 1 µM
# [5] = second compound 0.0316 µM, first compound 3.16 µM
# [6] = second compound 0.0316 µM, first compound 10 µM
# [7] = second compound 0.1 µM, first compound 0.0316 µM
# [8] = second compound 0.1 µM, first compound 0.1 µM
# [9] = second compound 0.1 µM, first compound 0.316 µM
# [10] = second compound 0.1 µM, first compound 1 µM
# [11] = second compound 0.1 µM, first compound 3.16 µM
# [12] = second compound 0.1 µM, first compound 10 µM
# [13] = second compound 0.316 µM, first compound 0.0316 µM
# [14] = second compound 0.316 µM, first compound 0.1 µM
# [15] = second compound 0.316 µM, first compound 0.316 µM
# [16] = second compound 0.316 µM, first compound 1 µM
# [17] = second compound 0.316 µM, first compound 3.16 µM
# [18] = second compound 0.316 µM, first compound 10 µM
# [19] = second compound 1 µM, first compound 0.0316 µM
# [20] = second compound 1 µM, first compound 0.1 µM
# [21] = second compound 1 µM, first compound 0.316 µM
# [22] = second compound 1 µM, first compound 1 µM
# [23] = second compound 1 µM, first compound 3.16 µM
# [24] = second compound 1 µM, first compound 10 µM
# [25] = second compound 3.16 µM, first compound 0.0316 µM
# [26] = second compound 3.16 µM, first compound 0.1 µM
# [27] = second compound 3.16 µM, first compound 0.316 µM
# [28] = second compound 3.16 µM, first compound 1 µM
# [29] = second compound 3.16 µM, first compound 3.16 µM
# [30] = second compound 3.16 µM, first compound 10 µM
# [31] = second compound 10 µM, first compound 0.0316 µM
# [32] = second compound 10 µM, first compound 0.1 µM
# [33] = second compound 10 µM, first compound 0.316 µM
# [34] = second compound 10 µM, first compound 1 µM
# [35] = second compound 10 µM, first compound 3.16 µM
# [36] = second compound 10 µM, first compound 10 µM
# 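Further: spheroids exposed to agents for 7 days.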
# 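Wherever viability, T/C is given: 100% = DMSO vehicle wells.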
compound,measurement,setting,value
C=C(F)C(=O)N1CCN(c2nc(OCC3CCCN3C)nc3c2CCN(c2cccc4cccc(Cl)c24)C3)CC1CC#N (stereo not drawn) + CNC(=O)c1ccc(Nc2nc(OC3CCCC3)c3c(-c4ccc5nc(C)oc5c4)c[nH]c3n2)c(OC)c1,IC50,second compound 0.0316 µM,5780 nM
same,IC50,second compound 0.1 µM,< 31.6 nM
same,IC50,second compound 0.316 µM,< 31.6 nM
same,IC50,second compound 1 µM,< 31.6 nM
same,IC50,second compound 3.16 µM,< 31.6 nM
same,IC50,second compound 10 µM,< 31.6 nM
same,"viability, T/C",[1],95.2%
same,"viability, T/C",[2],96.9%
same,"viability, T/C",[3],90.9%
same,"viability, T/C",[4],104%
same,"viability, T/C",[5],106%
same,"viability, T/C",[6],5.6%
same,"viability, T/C",[7],46%
same,"viability, T/C",[8],38.4%
same,"viability, T/C",[9],47.9%
same,"viability, T/C",[10],46.2%
same,"viability, T/C",[11],44.9%
same,"viability, T/C",[12],1.3%
same,"viability, T/C",[13],48.4%
same,"viability, T/C",[14],45.2%
same,"viability, T/C",[15],46.6%
same,"viability, T/C",[16],40.4%
same,"viability, T/C",[17],42.1%
same,"viability, T/C",[18],1.18%
same,"viability, T/C",[19],49.8%
same,"viability, T/C",[20],50.5%
same,"viability, T/C",[21],47.5%
same,"viability, T/C",[22],42.1%
same,"viability, T/C",[23],30.7%
same,"viability, T/C",[24],0.72%
same,"viability, T/C",[25],42.7%
same,"viability, T/C",[26],49.1%
same,"viability, T/C",[27],41.2%
same,"viability, T/C",[28],31.5%
same,"viability, T/C",[29],20.8%
same,"viability, T/C",[30],0.22%
same,"viability, T/C",[31],45.3%
same,"viability, T/C",[32],43%
same,"viability, T/C",[33],42.8%
same,"viability, T/C",[34],33.2%
same,"viability, T/C",[35],16.4%
same,"viability, T/C",[36],0.29%
O=c1[nH]cc(F)c(=O)[nH]1 + CN1CCN(c2cc(C(=O)Nc3cc4cc(-c5cnn(C)c5)ccc4cn3)ccn2)CC1,IC50,second compound 0.0316 µM,796 nM
same,IC50,second compound 0.1 µM,692 nM
same,IC50,second compound 0.316 µM,< 31.6 nM
same,IC50,second compound 1 µM,< 31.6 nM
same,IC50,second compound 3.16 µM,< 31.6 nM
same,IC50,second compound 10 µM,< 31.6 nM
same,"viability, T/C",[1],98.6%
same,"viability, T/C",[2],119%
same,"viability, T/C",[3],64.4%
same,"viability, T/C",[4],46.2%
same,"viability, T/C",[5],42.4%
same,"viability, T/C",[6],50.6%
same,"viability, T/C",[7],121%
same,"viability, T/C",[8],109%
same,"viability, T/C",[9],61.2%
same,"viability, T/C",[10],49.6%
same,"viability, T/C",[11],38.7%
same,"viability, T/C",[12],41.1%
same,"viability, T/C",[13],31.9%
same,"viability, T/C",[14],34.7%
same,"viability, T/C",[15],41.8%
same,"viability, T/C",[16],33.3%
same,"viability, T/C",[17],29.6%
same,"viability, T/C",[18],26.6%
same,"viability, T/C",[19],0.14%
same,"viability, T/C",[20],1.14%
same,"viability, T/C",[21],2.43%
same,"viability, T/C",[22],0.08%
same,"viability, T/C",[23],2.58%
same,"viability, T/C",[24],2.28%
same,"viability, T/C",[25],0.08%
same,"viability, T/C",[26],0.42%
same,"viability, T/C",[27],1.29%
same,"viability, T/C",[28],0.07%
same,"viability, T/C",[29],0.09%
same,"viability, T/C",[30],0.13%
same,"viability, T/C",[31],0.07%
same,"viability, T/C",[32],1.38%
same,"viability, T/C",[33],4.56%
same,"viability, T/C",[34],0.1%
same,"viability, T/C",[35],2.34%
same,"viability, T/C",[36],0.19%
C=CC(=O)Nc1cc(Nc2nccc(-c3cn(C)c4ccccc34)n2)c(OC)cc1N(C)CCN(C)C + CN1CCN(c2cc(C(=O)Nc3cc4cc(-c5cnn(C)c5)ccc4cn3)ccn2)CC1,IC50,second compound 0.0316 µM,> 300 nM
same,IC50,second compound 0.1 µM,> 300 nM
same,IC50,second compound 0.316 µM,< 0.949 nM
same,IC50,second compound 1 µM,< 0.949 nM
same,IC50,second compound 3.16 µM,< 0.949 nM
same,IC50,second compound 10 µM,< 0.949 nM
same,"viability, T/C","second compound 0.0316 µM, first compound 0.000949 µM",104%
same,"viability, T/C","second compound 0.0316 µM, first compound 0.003 µM",102%
same,"viability, T/C","second compound 0.0316 µM, first compound 0.00949 µM",93.5%
same,"viability, T/C","second compound 0.0316 µM, first compound 0.03 µM",103%
same,"viability, T/C","second compound 0.0316 µM, first compound 0.0949 µM",107%
same,"viability, T/C","second compound 0.0316 µM, first compound 0.3 µM",107%
same,"viability, T/C","second compound 0.1 µM, first compound 0.000949 µM",125%
same,"viability, T/C","second compound 0.1 µM, first compound 0.003 µM",114%
same,"viability, T/C","second compound 0.1 µM, first compound 0.00949 µM",110%
same,"viability, T/C","second compound 0.1 µM, first compound 0.03 µM",111%
same,"viability, T/C","second compound 0.1 µM, first compound 0.0949 µM",97.3%
same,"viability, T/C","second compound 0.1 µM, first compound 0.3 µM",79.2%
same,"viability, T/C","second compound 0.316 µM, first compound 0.000949 µM",30.5%
same,"viability, T/C","second compound 0.316 µM, first compound 0.003 µM",35.5%
same,"viability, T/C","second compound 0.316 µM, first compound 0.00949 µM",37%
same,"viability, T/C","second compound 0.316 µM, first compound 0.03 µM",25.2%
same,"viability, T/C","second compound 0.316 µM, first compound 0.0949 µM",24.5%
same,"viability, T/C","second compound 0.316 µM, first compound 0.3 µM",20.4%
same,"viability, T/C","second compound 1 µM, first compound 0.000949 µM",0.17%
same,"viability, T/C","second compound 1 µM, first compound 0.003 µM",0.18%
same,"viability, T/C","second compound 1 µM, first compound 0.00949 µM",1.87%
same,"viability, T/C","second compound 1 µM, first compound 0.03 µM",0.19%
same,"viability, T/C","second compound 1 µM, first compound 0.0949 µM",0.34%
same,"viability, T/C","second compound 1 µM, first compound 0.3 µM",1.79%
same,"viability, T/C","second compound 3.16 µM, first compound 0.000949 µM",0.2%
same,"viability, T/C","second compound 3.16 µM, first compound 0.003 µM",0.16%
same,"viability, T/C","second compound 3.16 µM, first compound 0.00949 µM",0.17%
same,"viability, T/C","second compound 3.16 µM, first compound 0.03 µM",0.17%
same,"viability, T/C","second compound 3.16 µM, first compound 0.0949 µM",1.76%
same,"viability, T/C","second compound 3.16 µM, first compound 0.3 µM",1.73%
same,"viability, T/C","second compound 10 µM, first compound 0.000949 µM",0.28%
same,"viability, T/C","second compound 10 µM, first compound 0.003 µM",0.23%
same,"viability, T/C","second compound 10 µM, first compound 0.00949 µM",0.25%
same,"viability, T/C","second compound 10 µM, first compound 0.03 µM",0.24%
same,"viability, T/C","second compound 10 µM, first compound 0.0949 µM",0.22%
same,"viability, T/C","second compound 10 µM, first compound 0.3 µM",0.24%
CCCS(=O)(=O)Nc1ccc(F)c(C(=O)c2c[nH]c3ncc(-c4ccc(Cl)cc4)cc23)c1F + CNC(=O)c1ccc(Nc2nc(OC3CCCC3)c3c(-c4ccc5nc(C)oc5c4)c[nH]c3n2)c(OC)c1,IC50,second compound 0.0316 µM,6930 nM
same,IC50,second compound 0.1 µM,698 nM
same,IC50,second compound 0.316 µM,< 31.6 nM
same,IC50,second compound 1 µM,< 31.6 nM
same,IC50,second compound 3.16 µM,< 31.6 nM
same,IC50,second compound 10 µM,< 31.6 nM
same,"viability, T/C",[1],94.6%
same,"viability, T/C",[2],102%
same,"viability, T/C",[3],98.9%
same,"viability, T/C",[4],89.9%
same,"viability, T/C",[5],93.8%
same,"viability, T/C",[6],29.6%
same,"viability, T/C",[7],55%
same,"viability, T/C",[8],62.2%
same,"viability, T/C",[9],44.3%
same,"viability, T/C",[10],53.6%
same,"viability, T/C",[11],34.6%
same,"viability, T/C",[12],13%
same,"viability, T/C",[13],42.4%
same,"viability, T/C",[14],37.1%
same,"viability, T/C",[15],39.7%
same,"viability, T/C",[16],41.5%
same,"viability, T/C",[17],27%
same,"viability, T/C",[18],14.8%
same,"viability, T/C",[19],43.8%
same,"viability, T/C",[20],38.8%
same,"viability, T/C",[21],42.3%
same,"viability, T/C",[22],30.9%
same,"viability, T/C",[23],27.2%
same,"viability, T/C",[24],11.6%
same,"viability, T/C",[25],41.4%
same,"viability, T/C",[26],44.3%
same,"viability, T/C",[27],41.4%
same,"viability, T/C",[28],31.6%
same,"viability, T/C",[29],22%
same,"viability, T/C",[30],10.1%
same,"viability, T/C",[31],40.4%
same,"viability, T/C",[32],34.4%
same,"viability, T/C",[33],38.3%
same,"viability, T/C",[34],27.9%
same,"viability, T/C",[35],21.4%
same,"viability, T/C",[36],8.93%
